In US5708015A, “Method for using pharmaceutical compositions containing 2-(2-alkyphenyl-amino)-thiazolines as adrenergic agents” (Allergan, priority 1996, dated 1998):
pKi: −log10 of the molar value. Like-named read-outs stand apart in the source and are kept apart here.

Tests used:
[1] = molecular target: T1, α2 B adrenergic receptor (rat kidney cortex membranes) (Rattus norvegicus, UniProt P19328); test: Alpha2 B (rat kidney) receptor binding assay
T1 construct: Membrane suspensions were prepared from human cerebral cortex (HCC), HT-29 cells (HT) and rat kidney cortex (RtKC); from tissue; host or cells: rat kidney cortex membranes
T1 sequence (P19328 1-453): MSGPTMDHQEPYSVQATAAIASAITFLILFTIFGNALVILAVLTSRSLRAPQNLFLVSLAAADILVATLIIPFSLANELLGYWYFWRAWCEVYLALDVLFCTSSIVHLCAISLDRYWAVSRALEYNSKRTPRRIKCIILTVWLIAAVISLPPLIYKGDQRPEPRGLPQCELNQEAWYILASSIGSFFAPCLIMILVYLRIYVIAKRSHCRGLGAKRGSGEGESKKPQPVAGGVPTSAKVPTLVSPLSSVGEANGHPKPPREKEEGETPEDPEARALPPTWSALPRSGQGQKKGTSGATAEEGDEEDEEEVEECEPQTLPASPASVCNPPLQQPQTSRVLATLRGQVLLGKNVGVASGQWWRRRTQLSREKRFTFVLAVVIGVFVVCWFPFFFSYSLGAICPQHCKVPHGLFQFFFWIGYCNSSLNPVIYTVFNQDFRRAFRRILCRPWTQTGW
Source text: (§1) The present compound or compounds may be included in a medication composition together with one or more other components to provide a medication composition which can be effectively administered. Such other components, e.g., carriers, anti-oxidants, bulking agents and the like, may be chosen from those materials which are conventional and well known in the art, e.g., as being included in medication compositions with α2 agonists. Whereas the effective dose of the compounds of the present compositions will depend on the nature of the host mammal and the specific diesease or condition treated it is anticipated that an effective daily dose of the compounds is in the range of 1 microgramm--10 mg per kg/body weight of the host. The ability of the compounds within the present invention to bind strongly and selectively to α2 adrenergic receptors in preference over α1 adrenergic receptors was confirmed by the following assay procedures which are generally recognized in the art to provide pertinent information with respect to the adrenergic activity of the compounds assayed: alpha1 (human brain) assay, alpha2 A (HT-29 cells) assay, and alpha2 B (rat kidney) assay. A description of these assay procedures is as follows.
(§2) Membrane preparation: Membrane suspensions were prepared from human cerebral cortex (HCC), HT-29 cells (HT) and rat kidney cortex (RtKC), as applicable. Tissues were homogenized in iced-cold buffer [250 mM sucrose, 5 mM tris, pH 7.4 (RtKC), or 50 mM Tris-HCl, 5 mM EDTA, pH 7.4 (HCC, HT)] with a Polytron homogenizer for 30 secs at setting #7, and centrifuged for 10 minutes at 300×g at 4° C. The supernatant was diluted 1:2 with 50 mM Tris-HCl buffer, pH 7.4 (RkCC, HCC) or pH 8.0 (HT) then centrifuged at 49,000×g for 15-20 minutes. The pellet fraction was washed 3 times (resuspended in Tris-HCl buffer and centrifuged for 15-20 minutes at 49,000×g). The pellet was then stored at -80° C. until the binding assay. Binding studies: The radioligands [^3 H] rauwolscine (specific activity 80 Ci/mmol) and [^3 H] prazosin (specific activity 77 Ci/mmol) were obtained from New England Nuclear, Boston, Mass. Frozen membrane pellet was resuspended in glycine glycine buffer, pH 7.6. Membrane protein homogenate (150-300 μg) was incubated with radioligand under the following conditions: 22° C., 30 minutes (HCC, HT), 0° C., 120 minutes (RtKC), in a final volume of 500 μl. At the end of the incubation period, the samples were filtered through glass fiber filters (Whatman GF/B) in a 96-well cell harvester and rapidly washed four times with 4 mls of iced-cold 50 mM Tris-HCl buffer. The filters were then oven dried and transferred to scintillation vials containing 5 mls of Beckman's Ready Protein^R scintillation cocktail for counting. Non-specific binding was defined by 10 μM phentolamine. Protein concentrations were determined with a protein assay kit from Bio Rad. Binding isotherms, equilibrium dissociation and affinity constants were analyzed and determined by the non-linear least squares curve fitting program AccuFit Competition/Saturation by Beckman.
(§3) As it will be recognized by those skilled in the art from the forogoing descriptions, the described assays are radioligand assays which measure the binding of the test compound to the respective α1 or α2 receptor. […]

[2] = molecular target: α1 adrenergic receptor (human cerebral cortex membranes); test: Alpha1 (human brain) receptor binding assay; conditions: 22° C., 30 minutes, [3H] radioligand
Source text: as §1
as §2, with “Membrane protein homogenate (150-300 μg) was incubated with radioligand under the following conditions: 22° C., 30 minutes (HCC, HT), 0° C., 120 minutes (RtKC), in a final volume of 500 μl. At the end of the incubation period, the samples were filtered through glass fiber filters (Whatman GF/B) in a 96-well cell harvester and rapidly washed four times with 4 mls of iced-cold 50 mM Tris-HCl buffer.” left out, “Non-specific binding was defined by 10 μM phentolamine.” left out, “Beckman. […]” for “Beckman.”

[3] = molecular target: T2, α2 A adrenergic receptor (HT-29 cells) (Homo sapiens, UniProt P08913); test: Alpha2 A (HT-29 cells) receptor binding assay
T2 construct: Membrane suspensions were prepared from human cerebral cortex (HCC), HT-29 cells (HT) and rat kidney cortex (RtKC); endogenous in cells; host or cells: HT-29 cells
Source text: as §1, §2, §3

T2 sequence (P08913 whole entry): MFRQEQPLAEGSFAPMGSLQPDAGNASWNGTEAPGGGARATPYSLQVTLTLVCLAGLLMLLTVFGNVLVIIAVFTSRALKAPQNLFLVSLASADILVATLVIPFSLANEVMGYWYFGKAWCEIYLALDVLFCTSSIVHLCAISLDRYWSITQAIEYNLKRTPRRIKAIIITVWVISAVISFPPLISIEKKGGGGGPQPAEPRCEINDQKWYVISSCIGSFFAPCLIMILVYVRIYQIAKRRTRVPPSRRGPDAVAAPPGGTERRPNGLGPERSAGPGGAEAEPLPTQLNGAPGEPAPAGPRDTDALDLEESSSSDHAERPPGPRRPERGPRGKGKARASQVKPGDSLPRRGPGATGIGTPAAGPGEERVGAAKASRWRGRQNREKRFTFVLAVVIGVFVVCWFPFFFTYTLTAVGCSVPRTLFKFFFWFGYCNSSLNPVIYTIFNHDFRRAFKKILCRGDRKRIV

SMILES	pKi [1]	pKi [2]	pKi [3]	pKi ([1]; rat kidney cortex membranes, 0° C., 120 minutes, [3H] radioligand, read-out: α2 B Ki)
Cc1cccc(N=C2NCCN2)c1C [Compound 3, 2-(2,3-Dimethylphenylimino)-imidazolidine]	8.82	6.36	8.24	–
Cc1ccccc1N=C1NCCN1 [Compound 3a, 2-(2-methylphenylimino)-imidazolidine]	7.60	5.66	8.12	–
c1cc2c(c(NC3=NCCO3)c1)CCCC2 [Compound 2, 2-(5,6,7,8-tetrahydronaphthylamino)-oxazoline]	8.21	–	8.66	–
Cc1cccc(NC2=NCCO2)c1C [Compound 1, 2-[2,3-Dimethylphenylamino)-oxazoline]	8.07	5.92	8.29	–
Cc1ccccc1NC1=NCCO1 [Compound 1a]	–	5.13	7.45	6.68
